Test results reported in patent US9686984B2, “Macrocyclic picolinamides as fungicides” (DOW AGROSCIENCES LLC, priority 2014, dated 2017).
Read-outs that look alike come from different tables or passages of the source.

Legend:
Puccinia triticina = experiment: Wheat Brown Rust (PUCCRT) disease control on wheat seedlings; assay type: in vivo; settings: for pest or weed control at 121.5 g/ha: Low Volume (121.5 g/H); for pest or weed control at 100 µg/mL: High Volume (100 ppm)
Experimental: Technical grades of materials were dissolved in acetone, which were then mixed with nine volumes of water containing 110 ppm Triton X-100. The fungicide solutions were applied onto wheat seedlings using an automated booth sprayer to run-off. All sprayed plants were allowed to air dry prior to further handling. All fungicides were evaluated using the aforementioned method for their activity vs. all target diseases, unless stated otherwise. Wheat leaf blotch and brown rust activity were also evaluated using track spray applications, in which case the fungicides were formulated as EC formulations, containing 0.1% Trycol 5941 in the spray solutions. Wheat plants (variety Yuma) were grown from seed in a greenhouse in 50% mineral soil/50% soil-less Metro mix until the first leaf was fully emerged, with 7-10 seedlings per pot. These plants were inoculated with an aqueous spore suspension of Septoria tritici either prior to or after fungicide treatments. After inoculation the plants were kept in 100% relative humidity (one day in a dark dew chamber followed by two to three days in a lighted dew chamber at 20° C.) to permit spores to germinate and infect the leaf. The plants were then transferred to a greenhouse set at 20° C. for disease to develop. When disease symptoms were fully expressed on the 1st leaves of untreated plants, infection levels were assessed on a scale of 0 to 100 percent disease severity. Percent disease control was calculated using the ratio of disease severity on treated plants relative to untreated plants. Example B: Evaluation of Fungicidal Activity: Wheat Brown Rust (Puccinia triticina; Synonym: Puccinia recondita f. sp. tritici; Bayer code PUCCRT) Wheat plants (variety Yuma) were grown from seed in a greenhouse in 50% mineral soil/50% soil-less Metro mix until the first leaf was fully emerged, with 7-10 seedlings per pot. These plants were inoculated with an aqueous spore suspension of Puccinia triticina either prior to or after fungicide treatments. After inoculation the plants were kept in a dark dew room at 22° C. with 100% relative humidity overnight to permit spores to germinate and infect the leaf. The plants were then transferred to a greenhouse set at 24° C. for disease to develop. Fungicide formulation, application and disease assessment followed the procedures as described in the Example A.

Zymoseptoria tritici = experiment: Leaf Blotch of Wheat (SEPTTR) disease control on wheat seedlings; assay type: in vivo; settings: for pest or weed control at 121.5 g/ha: Low Volume (121.5 g/H); for pest or weed control at 100 µg/mL: High Volume (100 ppm)
Experimental: Example A: Evaluation of Fungicidal Activity: Leaf Blotch of Wheat (Mycosphaerella graminicola; Anamorph: Zymoseptoria tritici; Bayer code […]) Technical grades of materials were dissolved in acetone, which were then mixed with nine volumes of water containing 110 ppm Triton X-100. The fungicide solutions were applied onto wheat seedlings using an automated booth sprayer to run-off. All sprayed plants were allowed to air dry prior to further handling. All fungicides were evaluated using the aforementioned method for their activity vs. all target diseases, unless stated otherwise. Wheat leaf blotch and brown rust activity were also evaluated using track spray applications, in which case the fungicides were formulated as EC formulations, containing 0.1% Trycol 5941 in the spray solutions. Wheat plants (variety Yuma) were grown from seed in a greenhouse in 50% mineral soil/50% soil-less Metro mix until the first leaf was fully emerged, with 7-10 seedlings per pot. These plants were inoculated with an aqueous spore suspension of Septoria tritici either prior to or after fungicide treatments. After inoculation the plants were kept in 100% relative humidity (one day in a dark dew chamber followed by two to three days in a lighted dew chamber at 20° C.) to permit spores to germinate and infect the leaf. The plants were then transferred to a greenhouse set at 20° C. for disease to develop. When disease symptoms were fully expressed on the 1st leaves of untreated plants, infection levels were assessed on a scale of 0 to 100 percent disease severity. Percent disease control was calculated using the ratio of disease severity on treated plants relative to untreated plants.

[1] = 24 h, 1 Day Protectant, read-out: PUCCRT disease control, 1 DP
[2] = 72 h, 3 Day Curative, read-out: PUCCRT disease control, 3 DC
[3] = 24 h, 1 Day Protectant, read-out: SEPTTR disease control, 1 DP
[4] = 72 h, 3 Day Curative, read-out: SEPTTR disease control, 3 DC

| melting point [°C] | SMILES | pest or weed control at 121.5 g/ha (Puccinia triticina; [1]) [%] | pest or weed control at 121.5 g/ha (Puccinia triticina; [2]) [%] | pest or weed control at 121.5 g/ha (Zymoseptoria tritici; [3]) [%] | pest or weed control at 121.5 g/ha (Zymoseptoria tritici; [4]) [%] | pest or weed control at 100 µg/mL (Puccinia triticina; [1]) [%] | pest or weed control at 100 µg/mL (Puccinia triticina; [2]) [%] | pest or weed control at 100 µg/mL (Zymoseptoria tritici; [3]) [%] | pest or weed control at 100 µg/mL (Zymoseptoria tritici; [4]) [%] |
| --- | --- | --- | --- | --- | --- | --- | --- | --- | --- |
| 195 to 197 | CCCC[C@H]1[C@H](C)OC(=O)[C@@H](N)CCO[C@@H]1COc1ccccc1.Cl | – | – | – | – | – | – | – | – |
| 48 to 54 | COc1ccnc(C(=O)N[C@H]2CCO[C@H](CCc3ccccc3)[C@@H](CCC(C)C)[C@H](C)OC2=O)c1OCOC(C)=O [Compound 26] | > 70 | > 70 | > 70 | > 70 | – | – | – | – |
| – | CCCC[C@H]1[C@H](C)OC(=O)[C@@H](NC(=O)c2nccc(OC)c2OCOC(C)=O)CCO[C@@H]1COC(=O)C(C)C [Compound 32] | > 70 | > 70 | > 70 | > 70 | – | – | – | – |
| – | CCCC[C@H]1[C@H](C)OC(=O)[C@@H](NC(=O)c2nccc(OC)c2OCOC(C)=O)CCO[C@@H]1CC [Compound 34] | > 70 | > 70 | < 70 | < 70 | – | – | – | – |
| – | CCCC[C@H]1[C@H](C)OC(=O)[C@@H](NC(=O)c2nccc(OC)c2OCOC(C)=O)CCO[C@@H]1COc1ccccc1 [Compound 35] | > 70 | > 70 | > 70 | > 70 | – | – | – | – |
| – | COc1ccnc(C(=O)N[C@H]2CCOC[C@@H](Cc3ccccc3)[C@H](C)OC2=O)c1OCOC(=O)C(C)C [Compound 36] | > 70 | > 70 | > 70 | < 70 | – | – | – | – |
| – | COc1ccnc(C(=O)N[C@H]2CCO[C@H](Cc3ccccc3)[C@@H](Cc3ccccc3)[C@H](C)OC2=O)c1OCOC(=O)C(C)C [Compound 37, ((2-(((2R,3S,4S,7S)-2,3-dibenzyl-4-methyl-6-oxo-1,5-dioxonan-7-yl)carbamoyl)-4-methoxypyridin-3-yl)oxy)methyl isobutyrate] | > 70 | > 70 | > 70 | > 70 | – | – | – | – |
| – | COc1ccnc(C(=O)N[C@H]2CCO[C@H](CCc3ccccc3)[C@@H](Cc3ccc(F)cc3)[C@H](C)OC2=O)c1OCOC(=O)C(C)C [Compound 38] | > 70 | > 70 | > 70 | > 70 | – | – | – | – |
| – | CCCC[C@H]1[C@H](C)OC(=O)[C@@H](NC(=O)c2nccc(OC)c2OCOC(=O)C(C)C)CCO[C@@H]1COc1ccccc1 [Compound 41] | > 70 | > 70 | > 70 | > 70 | – | – | – | – |
| – | CCOCC(=O)OCOc1c(OC)ccnc1C(=O)N[C@H]1CCOC[C@@H](Cc2ccccc2)[C@H](C)OC1=O [Compound 42, ((2-(((3R,4S,7S)-3-benzyl-4-methyl-6-oxo-1,5-dioxonan-7-yl)carbamoyl)-4-methoxypyridin-3-yl)oxy)methyl 2-ethoxyacetate] | > 70 | > 70 | > 70 | > 70 | – | – | – | – |
| – | CCOCC(=O)OCOc1c(OC)ccnc1C(=O)N[C@H]1CCO[C@H](Cc2ccccc2)[C@@H](Cc2ccccc2)[C@H](C)OC1=O [Compound 44] | > 70 | > 70 | > 70 | > 70 | – | – | – | – |
| – | CCCC[C@H]1[C@H](C)OC(=O)[C@@H](NC(=O)c2nccc(OC)c2OCOC(=O)COCC)CCO[C@@H]1CCc1ccccc1 [Compound 45] | > 70 | > 70 | > 70 | > 70 | – | – | – | – |
| – | CCCC[C@H]1[C@H](C)OC(=O)[C@@H](NC(=O)c2nccc(OC)c2OCOC(=O)COCC)CCO[C@@H]1CC [Compound 46] | > 70 | > 70 | > 70 | < 70 | – | – | – | – |
| – | CCCC[C@H]1[C@H](C)OC(=O)[C@@H](NC(=O)c2nccc(OC)c2OCOC(=O)COCC)CCO[C@@H]1COc1ccccc1 [Compound 47] | > 70 | > 70 | > 70 | > 70 | – | – | – | – |
| – | CCOCC(=O)Oc1c(OC)ccnc1C(=O)N[C@H]1CCOC[C@@H](Cc2ccccc2)[C@H](C)OC1=O [Compound 48, 2-(((3R,4S,7S)-3-benzyl-4-methyl-6-oxo-1,5-dioxonan-7-yl)carbamoyl)-4-methoxypyridin-3-yl 2-ethoxyacetate] | > 70 | > 70 | < 70 | < 70 | – | – | – | – |
| – | CC[C@H]1OCC[C@H](NC(=O)c2nccc(OC)c2O)C(=O)O[C@@H](C)[C@@H]1Cc1ccc(F)cc1 [Compound 55] | – | – | – | – | > 70 | > 70 | > 70 | > 70 |
| – | CCCC[C@H]1OCC[C@H](NC(=O)c2nccc(OC)c2O)C(=O)O[C@@H](C)[C@@H]1Cc1ccc(F)cc1 [Compound 56] | – | – | – | – | > 70 | > 70 | < 70 | > 70 |
| – | COc1ccnc(C(=O)N[C@H]2CCO[C@H](CCc3ccccc3)[C@@H](Cc3ccc(F)cc3)[C@H](C)OC2=O)c1O [Compound 57, N-((2R,3S,4S,7S)-3-(4-fluorobenzyl)-4-methyl-6-oxo-2-phenethyl-1,5-dioxonan-7-yl)-3-hydroxy-4-methoxypicolinamide] | – | – | – | – | > 70 | < 70 | > 70 | > 70 |
| – | COc1ccnc(C(=O)N[C@H]2CCO[C@H](CCc3ccccc3)[C@@H](CCC(C)C)[C@H](C)OC2=O)c1O [Compound 59] | – | – | – | – | > 70 | > 70 | > 70 | > 70 |
| 49 to 53 | COc1ccnc(C(=O)N[C@H]2CCOC[C@@H](CCC(C)C)[C@H](C)OC2=O)c1O [Compound 63] | – | – | – | – | – | – | – | – |
| – | CCCC[C@H]1[C@H](C)OC(=O)[C@@H](NC(=O)c2nccc(OC)c2O)CCO[C@@H]1CCc1ccccc1 [Compound 64] | – | – | – | – | > 70 | > 70 | > 70 | > 70 |
| – | CCCC[C@H]1[C@H](C)OC(=O)[C@@H](NC(=O)c2nccc(OC)c2O)CCO[C@@H]1COc1ccccc1 [Compound 68] | – | – | – | – | > 70 | > 70 | > 70 | < 70 |
| 39 to 44 | CC(C)CC[C@H]1[C@H](C)OC(=O)[C@@H](NC(=O)OC(C)(C)C)CCO[C@@H]1CCc1ccc(F)cc1 [Compound 100] | – | – | – | – | – | – | – | – |
| 41 to 44 | CC(C)CC[C@H]1[C@H](C)OC(=O)[C@@H](NC(=O)OC(C)(C)C)CCO[C@@H]1Cc1ccccc1 [Compound 102] | – | – | – | – | – | – | – | – |
| 110 to 112 | CC(C)CC[C@@H]1COCC[C@H](NC(=O)OC(C)(C)C)C(=O)O[C@H]1C [Compound 103] | – | – | – | – | – | – | – | – |
